Measurements from patent US4973578A, “Synthetic peptides derived from the alpha-subunit of human lycoprotein hormones” (Mayo Foundation for Medical Education and Research, priority 1988, dated 1990).
Residues, ends and D or L forms follow the SMILES beside them.

Target: T1, TSH receptor on human thyroid membranes (Homo sapiens, UniProt P16473)
T1 construct: Thyroid tissue obtained at surgery from patients with Graves' disease was prepared as described by Takahashi et al; from tissue; host or cells: human thyroid tissue from Graves' disease patients, 2000xg membrane fraction
T1 sequence (P16473 21-764): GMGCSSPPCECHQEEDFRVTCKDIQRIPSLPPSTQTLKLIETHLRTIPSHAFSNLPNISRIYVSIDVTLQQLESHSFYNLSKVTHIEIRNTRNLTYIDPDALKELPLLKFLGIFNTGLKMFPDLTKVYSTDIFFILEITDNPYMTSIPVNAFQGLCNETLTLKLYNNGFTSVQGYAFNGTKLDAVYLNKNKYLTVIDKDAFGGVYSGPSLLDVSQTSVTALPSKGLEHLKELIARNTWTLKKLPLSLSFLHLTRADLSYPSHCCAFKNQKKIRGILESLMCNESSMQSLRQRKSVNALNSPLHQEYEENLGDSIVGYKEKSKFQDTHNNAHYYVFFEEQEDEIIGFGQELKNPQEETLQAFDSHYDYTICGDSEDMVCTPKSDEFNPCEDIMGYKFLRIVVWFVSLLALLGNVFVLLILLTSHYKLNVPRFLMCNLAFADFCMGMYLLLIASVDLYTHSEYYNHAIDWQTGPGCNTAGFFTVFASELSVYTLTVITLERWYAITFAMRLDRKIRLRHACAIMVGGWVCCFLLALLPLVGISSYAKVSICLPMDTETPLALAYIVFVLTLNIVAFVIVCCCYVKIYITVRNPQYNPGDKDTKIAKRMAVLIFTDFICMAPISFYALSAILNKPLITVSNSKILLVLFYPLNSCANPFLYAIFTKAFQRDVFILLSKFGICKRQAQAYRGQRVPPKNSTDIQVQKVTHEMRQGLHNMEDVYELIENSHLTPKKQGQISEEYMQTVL
Assay: TSH radioreceptor assay: inhibition of 125I-bTSH binding to human thyroid membrane preparations
Details: for IC50: read-out: bTSH ED50 (effective dose necessary to inhibit binding of 125I-bTSH by 50%)
Procedure: Thyroid tissue obtained at surgery from patients with Graves' disease was prepared as described by Takahashi et al., J. Clin. Endocrinol. Metab. 47:870 (1978), the disclosure of which is incorporated herein. Briefly, the tissue was dissected free of fibrous material, minced with scissors, and homogenized with Polytron homogenizer. The 2000×g fraction was collected by centrifugation, washed and resuspended in 40 mM Tris, 0.1% Bovine Serum Albumin (BSA) pH 7.4 at a concentration of 100 mg equivalents of wet tissue per milliliter. The preparation was stored at -70° C. until used for assay.
Highly purified bovine TSH (30 IU/mg, supplied by Dr. J. G. Pierce, UCLA) was radio-iodinated (Na^125 I, Amersham, Chicago) by a gentle lactoperoxidase procedure described by Takahashi et al., supra, then purified by Sephadex G-100 chromatography.
The membrane assay incubation mixture consisted of […] of the 2000×g membrane fraction, 0.125 ng ^125 I bTSH (approximately 20,000 cpm, 5×10^-12 M), 100 ul of 1% Triton X-100 and noted amounts of test materials in a final volume of 0.5 ml of 40 mM Tris-HCl pH 7.4 plus 0.1% BSA. Nonspecific binding was determined by addition of excess unlabeled bTSH (200 mU/ml, Sigma, St. Louis). After 2 hrs incubation at 25° C., 200 ul of 5 mg/ml bovine gamma globulin and 1 ml 30% polyethylene glycol 6000 (Baker, Phillipsburg, N.J.) in 1M NaCl was added to each tube and the tubes centrifuged at 4000 rpm for 25 minutes. The supernatants were aspirated and pellets counted in a gamma counter. Specific binding averaged 25% of total counts.
FIG. 1 reports 5×10^-12 M labeled bTSH incubated with 10 mg equivalents (wet weight) of 2000×g fraction of thyroid membranes with varying concentrations of unlabeled TSH or synthetic α-subunit peptides. Nonspecific binding was determined in the presence of excess unlabeled TSH.

[1] = human thyroid membrane homogenates, ± S.E.

SMILES | IC50 [1] | bTSH ED50 (effective dose necessary to inhibit binding of 125I-bTSH by 50%) [1] | displacement of 125I-bTSH label (at concentrations greater than 1×10^-5 m, FIG. 1)
CC(C)C[C@H](NC(=O)[C@@H](NC(=O)[C@H](CS)NC(=O)[C@H](CCC(=O)O)NC(=O)[C@@H]1CCCN1C(=O)[C@H](CS)NC(=O)[C@H](CC(=O)O)NC(=O)[C@H](CCC(N)=O)NC(=O)[C@@H](NC(=O)[C@H](CC(=O)O)NC(=O)[C@@H]1CCCN1C(=O)[C@H](C)N)C(C)C)[C@@H](C)O)C(=O)N[C@@H](CCC(N)=O)C(=O)N[C@@H](CCC(=O)O)C(=O)N[C@@H](CC(N)=O)C(N)=O [α1-15, Ala--Pro--Asp--Val--Gln--Asp--Cys--Pro--Glu--Cys--Thr--Leu--Gln--Glu--Asn] (H-APDVQDCPECTLQEN-NH2) | > 700 µM |  | 
CC[C@H](C)[C@H](NC(=O)[C@@H]1CCCN1C(=O)[C@H](C)NC(=O)CNC(=O)[C@@H]1CCCN1C(=O)[C@H](CCC(N)=O)NC(=O)[C@H](CO)NC(=O)[C@H](Cc1ccccc1)NC(=O)[C@H](Cc1ccccc1)NC(=O)[C@@H]1CCCN1C(=O)[C@H](CC(N)=O)NC(=O)[C@H](CCC(=O)O)NC(=O)[C@H](CCC(N)=O)NC(=O)[C@H](CC(C)C)NC(=O)[C@@H](N)[C@@H](C)O)C(N)=O [α11-25, Thr--Leu--Gln--Glu--Asn--Pro--Phe--Phe--Ser--Gln--Pro--Gly--Ala--Pro--Ile] (H-TLQENPFFSQPGAPI-NH2) |  | no activity | 
CC(C)C[C@H](NC(=O)[C@@H]1CCCN1C(=O)[C@@H](NC(=O)[C@@H]1CCCN1C(=O)[C@H](Cc1ccc(O)cc1)NC(=O)[C@H](C)NC(=O)[C@H](CCCNC(=N)N)NC(=O)[C@H](CO)NC(=O)[C@H](Cc1ccccc1)NC(=O)[C@H](CS)NC(=O)[C@@H](N)CS)[C@@H](C)O)C(=O)N[C@@H](CCCNC(=N)N)C(=O)N[C@@H](CO)C(=O)N[C@@H](CCCCN)C(=O)N[C@@H](CCCCN)C(N)=O [α31-45, Cys--Cys--Phe--Ser--Arg--Ala--Tyr--Pro--Thr--Pro--Leu--Arg--Ser--Lys--Lys] (H-CCFSRAYPTPLRSKK-NH2) | 31.2 ± 3.8 µM |  | more than 80%
CSCC[C@H](NC(=O)[C@@H](NC(=O)[C@H](CCCCN)NC(=O)[C@H](CCCCN)NC(=O)[C@H](CO)NC(=O)[C@H](CCCNC(=N)N)NC(=O)[C@@H](N)CC(C)C)[C@@H](C)O)C(=O)N[C@@H](CC(C)C)C(=O)N[C@H](C(=O)N[C@@H](CCC(N)=O)C(=O)N[C@@H](CCCCN)C(=O)N[C@@H](CC(N)=O)C(=O)N[C@H](C(=O)N[C@H](C(=O)N[C@@H](CO)C(N)=O)[C@@H](C)O)C(C)C)C(C)C [α41-55, Leu--Arg--Ser--Lys--Lys--Thr--Met--Leu--Val--Gln Lys--Asn--Val--Thr--Ser] (H-LRSKKTMLVQKNVTS-NH2) | 171 ± 28.3 µM |  | 
CC(C)[C@H](NC(=O)[C@H](CS)NC(=O)[C@H](CS)NC(=O)[C@@H](NC(=O)[C@H](CO)NC(=O)[C@H](CCC(=O)O)NC(=O)[C@H](CO)NC(=O)[C@@H](NC(=O)[C@@H](NC(=O)[C@H](CC(N)=O)NC(=O)[C@@H](N)CCCCN)C(C)C)[C@@H](C)O)[C@@H](C)O)C(=O)N[C@@H](C)C(=O)N[C@@H](CCCCN)C(=O)N[C@@H](CO)C(=O)N[C@@H](Cc1ccc(O)cc1)C(N)=O [α51-65, Lys--Asn--Val--Thr--Ser--Glu--Ser--Thr--Cys--Cys--Val--Ala--Lys--Ser--Tyr] (H-KNVTSESTCCVAKSY-NH2) | 237 ± 9.5 µM |  | 
CSCC[C@H](NC(=O)[C@@H](NC(=O)[C@@H](NC(=O)[C@@H](NC(=O)[C@H](CCCNC(=N)N)NC(=O)[C@H](CC(N)=O)NC(=O)[C@H](Cc1ccc(O)cc1)NC(=O)[C@H](CO)NC(=O)[C@H](CCCCN)NC(=O)[C@H](C)NC(=O)[C@@H](N)C(C)C)C(C)C)[C@@H](C)O)C(C)C)C(=O)NCC(=O)NCC(=O)N[C@@H](Cc1ccccc1)C(=O)N[C@@H](CCCCN)C(N)=O [α61-75, Val--Ala--Lys--Ser--Tyr--Asn--Arg--Val--Thr--Val--Met--Gly--Gly--Phe--Lys] (H-VAKSYNRVTVMGGFK-NH2) | > 700 µM |  | 
CSCC[C@H](N)C(=O)NCC(=O)NCC(=O)N[C@@H](Cc1ccccc1)C(=O)N[C@@H](CCCCN)C(=O)N[C@H](C(=O)N[C@@H](CCC(=O)O)C(=O)N[C@@H](CC(N)=O)C(=O)N[C@@H](Cc1c[nH]cn1)C(=O)N[C@H](C(=O)N[C@@H](C)C(=O)N[C@@H](CS)C(=O)N[C@@H](Cc1c[nH]cn1)C(=O)N[C@@H](CS)C(=O)N[C@@H](CO)C(N)=O)[C@@H](C)O)C(C)C [α71-85, Met--Gly--Gly--Phe--Lys--Val--Glu--Asn--His--Thr--Ala--Cys--His--Cys--Ser] (H-MGGFKVENHTACHCS-NH2) | > 700 µM |  | 
